A value given as a limit tells only on which side of the number the result lay.

The target in this assay is T1, KRAS G12C (GMPPNP-loaded) and cRAF Ras-binding domain (Homo sapiens, UniProt P01116, C118S/C51S/C80L/G12C).
T1 construct: truncated version comprising amino acids 1-169
T1 sequence (P01116 1-169 isoform P01116-2 G12C/C51S/C80L/C118S): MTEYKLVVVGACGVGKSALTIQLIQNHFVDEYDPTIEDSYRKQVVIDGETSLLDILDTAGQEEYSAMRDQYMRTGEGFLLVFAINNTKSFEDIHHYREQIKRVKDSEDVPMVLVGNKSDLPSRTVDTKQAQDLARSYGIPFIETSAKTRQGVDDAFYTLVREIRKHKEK
Description: Inhibition of KRAS G12C and cRAF binding (AlphaScreen). To be noted: KRAS G12C preloaded with GTP analogue GMPPNP, 2 hours preincubation. The source says: The ability of compounds of Formula (A), Formula (B) and Formula (C), and pharmaceutically acceptable salts and/or isotopologues thereof, to inhibit activity of the GTP-bound form of KRAS G12C can be tested using methods such as the in vitro assay described in Example 179 below. Example 179 describes determining, for various compounds, the half-maximal inhibition (IC50) of KRAS G12C loaded with GTP analogue GMPPNP from binding to cRaf, as the Ras-binding domain (RBD). Example 180 describes determining, for various compounds, the half-maximal inhibition (IC50) of KRAS G12C loaded with GTP analogue GMPPNP from binding to PI3Kα, as the Ras-binding domain (RBD). Example 181 describes testing compounds for the ability to inhibit cell viability in MCF10A G12C/A59G mutant, which abrogates GTPase activity, thus preventing hydrolysis of GTP to GDP.
The AlphaScreen technology was used to determine IC50s for compound inhibition of KRAS G12C (present as the Cys-light (C51S, C80L and C118S), truncated version comprising amino acids 1-169) and cRAF interaction. Compounds were diluted in 100% DMSO and each compound concentration was spotted at 200 nl/well onto low volume, white 384 well plates. The KRAS G12C contained a biotin-AviTag and the cRaf, as Ras-binding domain (amino acids 50-131, RBD), was GST-tagged. KRAS G12C was preloaded with the GTP analogue Guanosine 5′-[β,γ-imido]triphosphate (GMPPNP). The KRAS G12C was diluted in 25 mM Hepes, pH 7.4, 150 mM NaCl, 5 mM MgCl2, 0.01% TritonX-100 and 10 μM GMPPNP and added at 10 ul/well to compound-spotted plates resulting in a DMSO concentration of 2%. Plates were incubated for 2 hours. A mixture of RBD and the AlphaScreen streptavidin donor and glutathione acceptor beads diluted in 25 mM Hepes, pH 7.4, 150 mM NaCl, 5 mM MgCl2, 0.01% TritonX-100 and 2% DMSO was then added at 10 ul/well and incubated for 60-90 minutes before the samples were read for emission at 570 nm after excitation of the donor beads at 680 nm. All incubations were performed at room temperature. The final top compound concentration was 50 μM with 1:3 titrations for 10-point dose response curves. Final assay conditions were 0.5 nM KRAS G12C, 0.75 nM RBD and 5 μg/ml each of AlphaScreen donor and acceptor beads. IC50s were determined using nonlinear regression fit of [inhibitor] vs. response (4 parameters). […]
(In Alpha technology, singlet oxygen from a donor bead excites a nearby acceptor bead.)
Broadly, the IC50 is the concentration that gives 50% inhibition. A high value points to a need for much substance. With `C=CC(=O)N1CC[C@@H](N(C)c2nc(OC[C@@]34CCCN3C[C@H](F)C4)nc3c2C[C@@H](C)[C@H](c2nc(N)cc(C)c2C(F)(F)F)C3)C1` [Example 59, 1-((R)-3-(((6R,7R)-7-(6-amino-4-methyl-3-(trifluoromethyl)pyridin-2-yl)-2-(((2R,7aS)-2-fluorohexahydro-1H-pyrrolizin-7a-yl)methoxy)-6-methyl-5,6,7,8-tetrahydroquinazolin-4-yl)(methyl)amino)pyrrolidin-1-yl)prop-2-en-1-one], the IC50 lay in the range of 100 to 500 nM.

`CC(C)c1noc(/C=C/C(=O)N2CC[C@@H](N(C)c3nc(OC[C@@]45CCCN4C[C@H](F)C5)nc4c(F)c(-c5nc(N)cc6cccc(Cl)c56)ncc34)C2)n1` [Example 60, (E)-1-((R)-3-((7-(3-amino-8-chloroisoquinolin-1-yl)-8-fluoro-2-(((2R,7aS)-2-fluorohexahydro-1H-pyrrolizin-7a-yl)methoxy)pyrido[4,3-d]pyrimidin-4-yl)(methyl)amino)pyrrolidin-1-yl)-3-(3-isopropyl-1,2,4-oxadiazol-5-yl)prop-2-en-1-one] showed an IC50 of under 10 nM.

In turn, `CN(C)C/C=C/C(=O)N1CC[C@@H](N(C)c2nc(OC[C@@]34CCCN3C[C@H](F)C4)nc3c(F)c(-c4nc(N)cc5cccc(Cl)c45)ncc23)C1` [Example 61, (E)-1-((R)-3-((7-(3-amino-8-chloroisoquinolin-1-yl)-8-fluoro-2-(((2R,7aS)-2-fluorohexahydro-1H-pyrrolizin-7a-yl)methoxy)pyrido[4,3-d]pyrimidin-4-yl)(methyl)amino)pyrrolidin-1-yl)-4-(dimethylamino)but-2-en-1-one] gave an IC50 of 10 to 100 nM.

The compound `Cc1cc(N)nc(-c2ncc3c(N(C)[C@@H]4CCN(C(=O)/C=C/CN(C)C)C4)nc(OC[C@@]45CCCN4C[C@H](F)C5)nc3c2F)c1C(F)(F)F` [Example 62, (E)-1-((R)-3-((7-(6-amino-4-methyl-3-(trifluoromethyl)pyridin-2-yl)-8-fluoro-2-(((2R,7aS)-2-fluorohexahydro-1H-pyrrolizin-7a-yl)methoxy)pyrido[4,3-d]pyrimidin-4-yl)(methyl)amino)pyrrolidin-1-yl)-4-(dimethylamino)but-2-en-1-one] gave an IC50 of 10 to 100 nM.

As to `Cc1cc(N)nc(-c2ncc3c(N(C)[C@@H]4CCN(C(=O)/C=C/c5nc(C6CC6)no5)C4)nc(OC[C@@]45CCCN4C[C@H](F)C5)nc3c2F)c1C(F)(F)F` [Example 63, (E)-1-((R)-3-((7-(6-amino-4-methyl-3-(trifluoromethyl)pyridin-2-yl)-8-fluoro-2-(((2R,7aS)-2-fluorotetrahydro-1H-pyrrolizin-7a(5H)-yl)methoxy)pyrido[4,3-d]pyrimidin-4-yl)(methyl)amino)pyrrolidin-1-yl)-3-(3-cyclopropyl-1,2,4-oxadiazol-5-yl)prop-2-en-1-one], the half-inhibitory concentration (IC50) is under 10 nM.

`C=CC(=O)N1CC(CN(C)c2nc(OC[C@@]34CCCN3C[C@H](F)C4)nc3c(F)c(-c4nc(N)cc(C)c4C(F)(F)F)ncc23)C1` [Example 64, 1-(3-(((7-(6-amino-4-methyl-3-(trifluoromethyl)pyridin-2-yl)-8-fluoro-2-(((2R,7aS)-2-fluorotetrahydro-1H-pyrrolizin-7a(5H)-yl)methoxy)pyrido[4,3-d]pyrimidin-4-yl)(methyl)amino)methyl)azetidin-1-yl)prop-2-en-1-one] displayed an IC50 of 10 to 100 nM.

`Cc1noc(/C=C/C(=O)N2CC[C@@H](N(C)c3nc(OC[C@@]45CCCN4C[C@H](F)C5)nc4c3CC(C)C(c3nc(N)cc(C)c3C(F)(F)F)C4)C2)n1` (stereo partly drawn) [Example 65, (E)-1-((3R)-3-((7-(6-amino-4-methyl-3-(trifluoromethyl)pyridin-2-yl)-2-(((2R,7aS)-2-fluorohexahydro-1H-pyrrolizin-7a-yl)methoxy)-6-methyl-5,6,7,8-tetrahydroquinazolin-4-yl)(methyl)amino)pyrrolidin-1-yl)-3-(3-methyl-1,2,4-oxadiazol-5-yl)prop-2-en-1-one] had an IC50 of under 10 nM.

With `CN(c1nc(OCC23CCCN2CCC3)nc2c(F)c(-c3nc(N)cc4cccc(Cl)c34)ncc12)[C@@H]1CCN(C#N)C1` [Example 66, (R)-3-((7-(3-amino-8-chloroisoquinolin-1-yl)-8-fluoro-2-((hexahydro-1H-pyrrolizin-7a-yl)methoxy)pyrido[4,3-d]pyrimidin-4-yl)(methyl)amino)pyrrolidine-1-carbonitrile], the 50% inhibitory concentration (IC50) lay within 10 to 100 nM.

`C=CC(=O)N1CC(CN(C)c2nc(OC[C@@]34CCCN3C[C@H](F)C4)nc3c2CC(C)C(c2nc(N)cc(C)c2C(F)(F)F)C3)C1` (stereo partly drawn) [Example 67, 1-(3-(((7-(6-amino-4-methyl-3-(trifluoromethyl)pyridin-2-yl)-2-(((2R,7aS)-2-fluorohexahydro-1H-pyrrolizin-7a-yl)methoxy)-6-methyl-5,6,7,8-tetrahydroquinazolin-4-yl)(methyl)amino)methyl)azetidin-1-yl)prop-2-en-1-one] showed an IC50 of at least 500 nM.

In turn, `C=CC(=O)N1CC[C@@H](N(C)c2nc(OC[C@@]34CCCN3C[C@H](F)C4)nc3c2CC(C)C(c2nc(N)cc(C)c2C(F)(F)F)C3)C1` (stereo partly drawn) [Example 68, 1-((3R)-3-((7-(6-amino-4-methyl-3-(trifluoromethyl)pyridin-2-yl)-2-(((2R,7aS)-2-fluorohexahydro-1H-pyrrolizin-7a-yl)methoxy)-6-methyl-5,6,7,8-tetrahydroquinazolin-4-yl)(methyl)amino)pyrrolidin-1-yl)prop-2-en-1-one] showed an IC50 of 100 to 500 nM.

The compound `C=CC(=O)N1CC[C@@H](N(C)c2nc(OCC34CCCN3CCC4)nc3c(F)c(-c4nc(N)cc5cccc(Cl)c45)ncc23)C1` [Example 69, (R)-1-(3-((7-(3-amino-8-chloroisoquinolin-1-yl)-8-fluoro-2-((hexahydro-1H-pyrrolizin-7a-yl)methoxy)pyrido[4,3-d]pyrimidin-4-yl)(methyl)amino)pyrrolidin-1-yl)prop-2-en-1-one] displayed an IC50 of 100 to 500 nM.

In turn, `CN(c1nc(OCC23CCCN2CCC3)nc2c(F)c(-c3nc(N)cc4cccc(F)c34)ncc12)[C@@H]1CCN(C#N)C1` [Example 70, (R)-3-((7-(3-amino-8-fluoroisoquinolin-1-yl)-8-fluoro-2-((hexahydro-1H-pyrrolizin-7a-yl)methoxy)pyrido[4,3-d]pyrimidin-4-yl)(methyl)amino)pyrrolidine-1-carbonitrile] showed an IC50 of 100 to 500 nM.

As for `Cc1cc(N)nc(-c2ncc3c(N(C)[C@@H]4CCN(C(=O)/C=C/c5nc(C(C)C)no5)C4)nc(OC[C@@]45CCCN4C[C@H](F)C5)nc3c2F)c1C(F)(F)F` [Example 71, (E)-1-((R)-3-((7-(6-amino-4-methyl-3-(trifluoromethyl)pyridin-2-yl)-8-fluoro-2-(((2R,7aS)-2-fluorotetrahydro-1H-pyrrolizin-7a(5H)-yl)methoxy)pyrido[4,3-d]pyrimidin-4-yl)(methyl)amino)pyrrolidin-1-yl)-3-(3-isopropyl-1,2,4-oxadiazol-5-yl)prop-2-en-1-one], the IC50 is under 10 nM.

In turn, `C=CC(=O)N1CC[C@@H](N(C)c2nc(OC[C@@]34CCCN3C[C@H](F)C4)nc3c(F)c(-c4nc(N)cc(C)c4C(F)(F)F)ncc23)C1` [Example 72, 1-((R)-3-((7-(6-amino-4-methyl-3-(trifluoromethyl)pyridin-2-yl)-8-fluoro-2-(((2R,7aS)-2-fluorotetrahydro-1H-pyrrolizin-7a(5H)-yl)methoxy)pyrido[4,3-d]pyrimidin-4-yl)(methyl)amino)pyrrolidin-1-yl)prop-2-en-1-one] displayed an IC50 of 10 to 100 nM.

`C=CC(=O)N1CC(CN(C)c2nc(OC[C@@]34CCCN3C[C@H](F)C4)nc3c(F)c(-c4nc(N)cc5cccc(Cl)c45)ncc23)C1` [Example 73, 1-(3-(((7-(3-amino-8-chloroisoquinolin-1-yl)-8-fluoro-2-(((2R,7aS)-2-fluorohexahydro-1H-pyrrolizin-7a-yl)methoxy)pyrido[4,3-d]pyrimidin-4-yl)(methyl)amino)methyl)azetidin-1-yl)prop-2-en-1-one] returned a half-inhibitory concentration (IC50) of 10 to 100 nM.

Take `C=CC(=O)N1CC[C@@H](N(C)c2nc(OC[C@@]34CCCN3C[C@H](F)C4)nc3c(F)c(-c4nc(N)cc5cccc(Cl)c45)ncc23)C1` [Example 74, 1-((R)-3-((7-(3-amino-8-chloroisoquinolin-1-yl)-8-fluoro-2-(((2R,7aS)-2-fluorohexahydro-1H-pyrrolizin-7a-yl)methoxy)pyrido[4,3-d]pyrimidin-4-yl)(methyl)amino)pyrrolidin-1-yl)prop-2-en-1-one]: the IC50 was in the range of 10 to 100 nM.
